molecular target: interaction between p53 and MDM2 proteins (Homo sapiens, UniProt Q00987); assay: HTRF assay of inhibition of the p53-MDM2 interaction (GST-MDM2 / biotinylated p53 peptide); format: binding; conditions: 0.02% BSA
Experimental: The ability of the compounds to inhibit the interaction between p53 and MDM2 proteins was measured by an HTRF (homogeneous time-resolved fluorescence) assay in which recombinant GST-tagged MDM2 binds to a peptide that resembles the MDM2-interacting region of p53 (Lane et al.). Binding of GST-MDM2 protein and p53-peptide (biotinylated on its N-terminal end) is registered by the FRET (fluorescence resonance energy transfer) between Europium (Eu)-labeled anti-GST antibody and streptavidin-conjugated Allophycocyanin (APC).
Test is performed in black flat-bottom 384-well plates (Costar) in a total volume of 40 uL containing: 90 nM biotinylate peptide, 160 ng/ml GST-MDM2, 20 nM streptavidin-APC (PerkinElmerWallac), 2 nM Eu-labeled anti-GST-antibody (PerkinElmerWallac), 0.2% bovine serum albumin (BSA), 1 mM dithiothreitol (DTT) and 20 mM […] (TBS) buffer as follows: Add 10 uL of GST-MDM2 (640 ng/ml working solution) in reaction buffer to each well. Add 10 uL diluted compounds (1:5 dilution in reaction buffer) to each well, mix by shaking. Add 20 uL biotinylated p53 peptide (180 nM working solution) in reaction buffer to each well and mix on shaker. Incubate at 37° C. for 1 h. Add 20 uL streptavidin-APC and Eu-anti-GST antibody mixture (6 nM Eu-anti-GST and 60 nM streptavidin-APC working solution) in TBS buffer with 0.2% BSA, shake at room temperature for 30 minutes and read using a TRF-capable plate reader at 665 and 615 nm (Victor 5, Perkin ElmerWallac).

Chain of interaction between p53 and MDM2 proteins (Q00987 whole entry): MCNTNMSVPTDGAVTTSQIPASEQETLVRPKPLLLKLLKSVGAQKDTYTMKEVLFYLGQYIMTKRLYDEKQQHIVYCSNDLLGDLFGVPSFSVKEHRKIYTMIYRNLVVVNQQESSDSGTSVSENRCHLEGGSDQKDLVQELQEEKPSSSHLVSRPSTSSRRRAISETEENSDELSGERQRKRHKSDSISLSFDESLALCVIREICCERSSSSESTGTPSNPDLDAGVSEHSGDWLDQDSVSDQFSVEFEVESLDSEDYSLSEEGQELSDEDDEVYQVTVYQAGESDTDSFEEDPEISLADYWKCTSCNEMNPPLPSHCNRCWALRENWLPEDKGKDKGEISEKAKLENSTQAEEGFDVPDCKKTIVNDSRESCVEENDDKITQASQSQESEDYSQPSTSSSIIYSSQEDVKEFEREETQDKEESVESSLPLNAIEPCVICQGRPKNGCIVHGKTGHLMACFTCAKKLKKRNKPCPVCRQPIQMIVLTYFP

First: COC(=O)C1(Oc2ccc(Cl)cc2[C@H]2CC(=S)N[C@@H](c3cc(F)ccc3C)[C@]23C(=O)Nc2cc(Cl)ccc23)CCC1 (racemic) [Example 50, racemic (2′S, 3S, 4′R)-6-chloro-4′-[5-chloro-2-(1-methoxycarbonyl-cyclobutoxy)-phenyl]-2′-(5-fluoro-2-methyl-phenyl)-6′-thioxo spiro[3H-indole-3,3′-piperidine]-2(1H)-one]
Second: CONC(=O)C(C)(C)Oc1ccc(Cl)cc1[C@H]1CC(=S)N[C@@H](c2cc(F)ccc2C)[C@]12C(=O)Nc1cc(Cl)ccc12 (racemic) [Example 73, racemic (2′S, 3S, 4′R)-6-chloro-4′-[5-chloro-2-(1-methoxycarbamoyl-1-methyl-ethoxy)-phenyl]-2′-(5-fluoro-2-methyl-phenyl)-6′-thioxo spiro[3H-indole-3,3′-piperidine]-2(1H)-one]
The IC50 of the first is 7.1-fold higher: 4330 nM for the first, 607 nM for the second. The second is the more potent here.

Going from `Cc1ccc(F)cc1[C@@H]1NC(=S)C[C@H](c2cc(Cl)ccc2OC(C)(C)C(=O)O)[C@@]12C(=O)Nc1cc(Cl)ccc12` [Example 8, chiral (2′S, 3S, 4′R)-6-chloro-4′-[5-chloro-2-(1-hydroxycarbonyl-1-methyl-ethoxy)-phenyl]-2′-(5-fluoro-2-methyl-phenyl)-6′-thioxo spiro[3H-indole-3,3′-piperidine]-2(1H)-one] to `CCC(CC)(Oc1ccc(Cl)cc1[C@H]1CC(=S)N[C@@H](c2cc(F)ccc2C)[C@]12C(=O)Nc1cc(Cl)ccc12)C(=O)NS(C)(=O)=O` [Example 24, chiral (2′S, 3S, 4′R)-6-chloro-4′-[5-chloro-2-(2-methanesulfonylamino-1,1-diethyl-2-oxo-ethoxy)-phenyl]-2′-(5-fluoro-2-methyl-phenyl)-6′-thioxo spiro[3H-indole-3,3′-piperidine]-2(1H)-one], the IC50 falls from 50 nM to 22 nM (2.3-fold). The second is the more potent here.

`COc1cc(F)c(Cl)cc1[C@@H]1CC(=S)N[C@H](c2cc(F)ccc2C)[C@@]12C(=O)Nc1cc(Cl)ccc12` (racemic) [Example 62] gave an IC50 of 1090 nM.

Source: US8076482B2, “3,3′-spiroindolinone derivatives” (Hoffmann-La Roche Inc., priority 2009, dated 2011)
